What was measured:
[1] = target: T1, Human neutrophil elastase (Homo sapiens, UniProt P08246); assay: Human Neutrophil Elastase Assay; format: biochemical; conditions: substrate MeOSuc-Ala-Ala-Pro-Val-AMC 250 μM, pH 7.5, room temperature
T1 construct: purchased Calbiochem 324681
T1 sequence (P08246 30-247 limits assumed): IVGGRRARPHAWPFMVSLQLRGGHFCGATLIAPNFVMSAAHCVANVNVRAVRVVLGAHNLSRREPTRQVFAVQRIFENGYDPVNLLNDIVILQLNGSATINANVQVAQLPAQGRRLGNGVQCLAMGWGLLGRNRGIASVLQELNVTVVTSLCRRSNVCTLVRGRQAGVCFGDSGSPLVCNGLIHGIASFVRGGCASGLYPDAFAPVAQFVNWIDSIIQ
Excerpt: Human Neutrophil Elastase Assay

[2] = target: T2, neutrophil elastase in human plasma (Homo sapiens, UniProt P08246); assay: Neutrophil elastase inhibitory activity in human plasma; format: biochemical; conditions: zymosan-stimulated human plasma, substrate MeOSuc-Ala-Ala-Pro-Val-AMC 250 μM
T2 construct: The stimulated blood is centrifuged to generate the neutrophil elastase enriched plasma; from tissue; host or cells: plasma from zymosan-stimulated citrated whole blood of healthy human donors
T2 sequence (P08246 30-267): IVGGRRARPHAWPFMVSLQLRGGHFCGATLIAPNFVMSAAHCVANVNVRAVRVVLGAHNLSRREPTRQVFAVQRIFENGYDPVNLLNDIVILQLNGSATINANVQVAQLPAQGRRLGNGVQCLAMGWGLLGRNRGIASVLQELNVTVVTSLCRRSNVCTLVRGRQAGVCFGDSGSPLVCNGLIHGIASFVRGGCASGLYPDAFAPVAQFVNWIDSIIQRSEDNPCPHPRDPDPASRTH
Protocol: Assay for the Determination of Neutrophil Elastase Inhibitory Activity in Human Plasma
Citrated blood from human healthy donors is mixed with zymosan suspension and incubated at room temperature. This leads to the stimulation of neutrophils and the release of neutrophil elastase into the plasma. The stimulated blood is centrifuged to generate the neutrophil elastase enriched plasma.
• A single 45 ml blood sample is taken into a 50 ml tube containing citrate (3.13%, 5 mL) and the tube is gently inverted 4 times. • Immediately after blood sampling, zymosan working solution (5 mL) is added. • After the addition of zymosan working solution, the tubes are capped, mixed gently and incubated at 22° C. for 15 min on a shaker at 20 rpm. • Make 10 ml aliquots after the incubation time. • Centrifuge the 15 ml tubes at 800 g for 15 min at 4° C. in a Jouan centrifuge. • Harvest the plasma and make 1-5 ml aliquots. • Store the plasma at −80° C.
A dose response curve is generated to calculate the EC50 of the inhibitor. The analysis of the data is performed by the calculation of the percentage of fluorescence in the presence of the test compound compared to the fluorescence of the vehicle control after subtracting the background fluorescence: An inhibitor of the neutrophil elastase enzyme will give values between 100% control (no inhibition) and 0% control (complete inhibition).

[3] = Metabolic stability with human liver microsomes; format: in vitro ADME; conditions: pooled human liver microsomes, pH 7.6; human liver microsomes 1 mg/ml, 1 μM compound, 37° C., NADPH; read-out: t1/2 INVITRO
[4] = Drug transport across human Caco-2 cells; format: in vitro ADME; conditions: pH 7.2, 37° C.; for Papp A→B at 10 µM: apical-to-basal, read-out: PEAB; for Papp B→A at 10 µM: basal-to-apical, read-out: PEBA
Excerpt: Assay for Determination of Drug Transport Across Human Caco-2 Cells
The assay provides information on the potential of a compound to pass the cell membrane, on the extent of oral absorption as well as on whether the compound is actively transported by uptake and/or efflux transporters. For the measurement of permeability across polarized, confluent human cancer colon carcinoma cells 2 (Caco-2) cell monolayers grown on permeable filter supports are used as the in vitro absorption model.
Apparent permeability coefficients (PE) of the compounds across the Caco-2 monolayers are measured (pH 7.2, 37° C.) in apical-to-basal (AB) (absorptive) and basal-to-apical (BA) (secretory) transport direction. AB permeability (PEAB) represents drug absorption from the intestine into the blood and BA permeability (PEBA) drug secretion from the blood back into the intestine via both passive permeability as well as active transport mechanisms mediated by efflux and uptake transporters that are expressed on the Caco-2 cells. The compounds are assigned to permeability/absorption classes by comparison of the AB permeabilities with the AB permeabilities of reference compounds with known in vitro permeability and oral absorption in the human. Identical or similar permeabilities in both transport directions indicate passive permeation, vectorial permeability points to additional active transport mechanisms. […] Active transport is concentration-dependently saturable.
Caco-2 cells (1-2*10^5 cells/cm^2 area) are seeded on filter inserts (Costar transwell polycarbonate or PET filters, 0.4 μm pore size) and cultured (DMEM) for 10 to 25 days. Compounds are dissolved in appropriate solvent (like DMSO, 1-20 min stock solutions). Stock solutions are diluted with HTP-4 buffer (128.13 min NaCl, 5.36 min KCl, 1 mM MgSO4, 1.8 min CaCl2, 4.17 min NaHCO3, 1.19 min Na2HPO4×7H2O, 0.41 mM NaH2PO4×H2O, 15 min HEPES, 20 min glucose, pH 7.2) to prepare the transport solutions (typically 10 μM compound, final DMSO<=0.5%). The transport solution (TL) is applied to the apical or basolateral donor side for measuring A-B or B-A permeability (3 filter replicates), respectively. The receiver side contains HTP-4 buffer supplemented with 2% BSA. Samples are collected at the start and end of experiment from the donor and at various time intervals for up to 2 hours also from the receiver side for concentration measurement by LC-MS/MS or scintillation counting. Sampled receiver volumes are replaced with fresh receiver solution.

| IC50 [1] | SMILES | other results |
| --- | --- | --- |
| 2 nM | C[S+]([O-])c1cc(C#N)ccc1C1NC(=O)N(c2cccc(C(F)(F)F)c2)C2=C1C(=O)CCC2 (single isomer, unassigned) [Example 1.1, 4-[2,5-Dioxo-1-(3-trifluoromethyl-phenyl)-1,2,3,4,5,6,7,8-octahydro-quinazolin-4-yl]-3-methanesulfinyl-benzonitrile] | – |
| < 1 nM | C[S+]([O-])c1cc(C#N)ccc1C1NC(=O)N(c2cccc(C(F)(F)F)c2)C2=C1C(=O)CCC2 (single isomer, unassigned) [Example 1.1A, 4-[2,5-Dioxo-1-(3-trifluoromethyl-phenyl)-1,2,3,4,5,6,7,8-octahydro-quinazolin-4-yl]-3-methanesulfinyl-benzonitrile] | – |
| 7.4 nM | C[S+]([O-])c1cc(C#N)ccc1C1NC(=O)N(c2cccc(C(F)(F)F)c2)C2=C1C(=O)CCC2 (single isomer, unassigned) [Example 1.1B, 4-[2,5-Dioxo-1-(3-trifluoromethyl-phenyl)-1,2,3,4,5,6,7,8-octahydro-quinazolin-4-yl]-3-methanesulfinyl-benzonitrile] | – |
| 4.2 nM | C[S+]([O-])c1cc(C#N)ccc1C1NC(=O)N(c2cccc(C(F)(F)F)c2)C2=C1C(=O)CCC2 (single isomer, unassigned) [Example 1.2, 4-[2,5-Dioxo-1-(3-trifluoromethyl-phenyl)-1,2,3,4,5,6,7,8-octahydro-quinazolin-4-yl]-3-methanesulfinyl-benzonitrile] | – |
| < 1 nM | CN1C(=O)N(c2cccc(C(F)(F)F)c2)C2=C(C(=O)CCC2)C1c1ccc(C#N)cc1[S+](C)[O-] (single isomer, unassigned) [Example 2.1, 3-Methanesulfinyl-4-[3-methyl-2,5-dioxo-1-(3-trifluoromethyl-phenyl)-1,2,3,4,5,6,7,8-octahydro-quinazolin-4-yl]-benzonitrile] | – |
| 134 nM | CN1C(=O)N(c2cccc(C(F)(F)F)c2)C2=C(C(=O)CCC2)C1c1ccc(C#N)cc1[S+](C)[O-] (single isomer, unassigned) [Example 2.1B, 3-Methanesulfinyl-4-[3-methyl-2,5-dioxo-1-(3-trifluoromethyl-phenyl)-1,2,3,4,5,6,7,8-octahydro-quinazolin-4-yl]-benzonitrile] | – |
| 1.2 nM | CN1C(=O)N(c2cccc(C(F)(F)F)c2)C2=C(C(=O)CCC2)C1c1ccc(C#N)cc1[S+](C)[O-] (single isomer, unassigned) [Example 2.2, 3-Methanesulfinyl-4-[3-methyl-2,5-dioxo-1-(3-trifluoromethyl-phenyl)-1,2,3,4,5,6,7,8-octahydro-quinazolin-4-yl]-benzonitrile] | – |
| 100 nM | CN1C(=O)N(c2cccc(C(F)(F)F)c2)C2=C(C(=O)CCC2)C1c1ccc(C#N)cc1[S+](C)[O-] (single isomer, unassigned) [Example 2.2B, 3-Methanesulfinyl-4-[3-methyl-2,5-dioxo-1-(3-trifluoromethyl-phenyl)-1,2,3,4,5,6,7,8-octahydro-quinazolin-4-yl]-benzonitrile] | – |
| < 1 nM | CNC(=O)N1C(=O)N(c2cccc(C(F)(F)F)c2)C2=C(C(=O)CCC2)C1c1ccc(C#N)cc1[S+](C)[O-] (single isomer, unassigned) [Example 3.1, 4-(4-Cyano-2-methanesulfinyl-phenyl)-2,5-dioxo-1-(3-trifluoromethyl-phenyl)-1,4,5,6,7,8-hexahydro-2H-quinazoline-3-carboxylic acid methylamide] | – |
| < 1 nM | CNC(=O)N1C(=O)N(c2cccc(C(F)(F)F)c2)C2=C(C(=O)CCC2)C1c1ccc(C#N)cc1[S+](C)[O-] (single isomer, unassigned) [Example 3.2, 4-(4-Cyano-2-methanesulfinyl-phenyl)-2,5-dioxo-1-(3-trifluoromethyl-phenyl)-1,4,5,6,7,8-hexahydro-2H-quinazoline-3-carboxylic acid methylamide] | – |
| 1 nM | CS(=O)(=O)c1cc(C#N)ccc1C1C2=C(CCCC2=O)N(c2cccc(C(F)(F)F)c2)C(=O)N1CC1COC1 (single isomer, unassigned) [Example 5A, 3-Methanesulfonyl-4-[3-oxetan-3-ylmethyl-2,5-dioxo-1-(3-trifluoromethyl-phenyl)-1,2,3,4,5,6,7,8-octahydro-quinazolin-4-yl]-benzonitrile] | EC50 [2]: 1 nM; half-life at 1 μM [3]: 1.23 h; Papp A→B at 10 µM [4]: 12 ×10⁻⁶ cm/s; Papp B→A at 10 µM [4]: 89 ×10⁻⁶ cm/s |
| 157 nM | CS(=O)(=O)c1cc(C#N)ccc1C1C2=C(CCCC2=O)N(c2cccc(C(F)(F)F)c2)C(=O)N1CC1COC1 (single isomer, unassigned) [Example 5B, 3-Methanesulfonyl-4-[3-oxetan-3-ylmethyl-2,5-dioxo-1-(3-trifluoromethyl-phenyl)-1,2,3,4,5,6,7,8-octahydro-quinazolin-4-yl]-benzonitrile] | – |
| 7 nM | N#Cc1ccc(C2NC(=O)N(c3cccc(C(F)(F)F)c3)C3=C2C(=O)CCC3)c(S(=O)(=O)CCO)c1 (stereo not shown) [Example 4, 4-[2,5-Dioxo-1-(3-trifluoromethyl-phenyl)-1,2,3,4,5,6,7,8-octahydro-quinazolin-4-yl]-3-(3-hydroxy-ethane-1-sulfonyl)-benzonitrile] | – |
| 5.6 nM | N#Cc1ccc(C2NC(=O)N(c3cccc(C(F)(F)F)c3)C3=C2C(=O)CCC3)c(S(=O)(=O)CCCO)c1 (stereo not shown) [Example 4.1] | – |
| 11 nM | COCCS(=O)(=O)c1cc(C#N)ccc1C1NC(=O)N(c2cccc(C(F)(F)F)c2)C2=C1C(=O)CCC2 (stereo not shown) [Example 4.2] | – |
| < 1 nM | CN1C(=O)N(c2cccc(C(F)(F)F)c2)C2=C(C(=O)CCC2)C1c1ccc(C#N)cc1S(=O)(=O)CCCO (stereo not shown) [Example 4.4] | EC50 [2]: 2 nM; half-life at 1 μM [3]: 1.67 h; Papp A→B at 10 µM [4]: 8.4 ×10⁻⁶ cm/s; Papp B→A at 10 µM [4]: 110 ×10⁻⁶ cm/s |
| 1 nM | CN1C(=O)N(c2cccc(C(F)(F)F)c2)C2=C(C(=O)CCC2)C1c1ccc(C#N)cc1CO (stereo not shown) [Example 7, 3-Hydroxymethyl-4-[3-methyl-2,5-dioxo-1-(3-trifluoromethyl-phenyl)-1,2,3,4,5,6,7,8-octahydro-quinazolin-4-yl]-benzonitrile] | – |
